Experimental data as given in patent publication US7611721B1, “Adjuvant combination formulations” (priority 2000, dated 2009).
Read-outs that look alike come from different tables or passages of the source.

B1: GM-CSF: Recombinant murine granulocyte macrophage colony stimulating factor (protein, UniProt P01587 18-141, looked up)
Granulocyte-macrophage …: APTRSPITVTRPWKHVEAIKEALNLLDDMPVTLNEEVEVVSNEFSFKKLTCVQTRLKIFEQGLRGNFTKLKGALNMTASYYQTYCPPTPETDCETQVTTYADFIDSLKTFLTDIPFECKKPGQK

Experiments:
[1] = system: T1SP10MN(A) (−Cys); settings: for Vaginal lavage reciprocal anti-T1SP10MN(A) (−Cys) IgA endpoint titer / Vaginal lavage reciprocal anti-T1SP10MN(A) (−Cys) IgG endpoint titer: Experiment 2, pooled, n=5 Balb/c, 15 days after secondary immunization
Method: Animals were bled prior to initial immunization, and at indicated time points. Serum was analyzed from individual mice, or as pools from mice within groups. Vaginal lavage was performed on euthanized mice to assess antibody levels. This was accomplished by instillation of 75:1 RPMI-10 into the vaginal vault of female mice using a 200:1 pipette. The vault was washed by repeated delivery and removal of fluid, which was then added to 10:1 of FBS. Vaginal lavage were analyzed as pools.
For analysis of HIV peptide-specific antibody and subclass distribution, peptide was suspended in either carbonate buffer (15 mM Na2CO3, 35 mM NaHCO3, pH 9.6), or PBS, at a concentration of 1 μg/ml and plated to 96 well microtiter plates (Nunc) in a volume of 100:1. After overnight incubation at 37° C., plates were washed, and blocked (0.1% gelatin/PBS) at room temperature for 2-4 hours. ELISA plates were washed with wash buffer (PBS, 0.1% Tween™20) before addition of serially diluted serum (PBS, 0.1% gelatin, 0.05% Tween™20, 0.02% sodium azide). After a four hour incubation, wells were washed and appropriate dilutions of biotinylated anti-isotype/subclass antibodies were added for incubation at 4° C. overnight. Wells were washed and incubated with strepavidin-conjugated horseradish peroxidase. After incubation, wells were washed, and developed with ABTS. Wells were read at 405 nm. Titers were standardized using control sera.
Vaginal IgG and IgA anti-peptide antibody titers were measured from lavage obtained 2 weeks after final immunization. Groups of 5 Balb/c female mice were immunized with 25 μg T1SP10MN(A) (−Cys) and the indicated adjuvant formulations on days 0, 28, and 42. Vaginal antibody titers were determined from pool d lavage fluid.
HIV peptide-specific vaginal lavage endpoint reciprocal endpoint IgG and IgA antibody titers were measured from pooled serum (n=5 Balb/c) 15 days after secondary immunization. […] Aqueous MPL™ was delivered at 50 μg per dose. Recombinant murine IL-12 was delivered at 40 ng/mouse. Recombinant murine GM-CSF was delivered at 10 μg/mouse.
Vaginal IgG and IgA anti-peptide antibody titers were measured from lavage 41 days after initial immunization, 13 days after secondary immunization.

[2] = system: Neisseria gonorrhoeae Porin B protein; assay: Reciprocal anti-Porin B protein serum IgG endpoint subclass titers; type: in vivo, Swiss-Webster mice; settings: for Reciprocal anti-Porin B Protein IgG1 endpoint titer, Week 3 / Reciprocal anti-Porin B Protein IgG1 endpoint titer, Week 6 / Reciprocal anti-Porin B Protein IgG2a endpoint titer, Week 3 / Reciprocal anti-Porin B Protein IgG2a endpoint titer, Week 6 / Reciprocal anti-Porin B Protein IgG endpoint titer, Week 3 / Reciprocal anti-Porin B Protein IgG endpoint titer, Week 6: 1 μg Porin B s.c. week 0 and 4
Method: (§1) Outbred Swiss-Webster mice were divided into five groups of ten mice each. Each group received 1 μg of recombinant Porin B protein (from strain FA1090 with 16 amino acids at the amino-terminus from a phage, followed by the mature form of the Porin B protein). […] Mice were immunized subcutaneously in the rump with a total volume of 0.2 ml, divided equally into each of two sites at the base of the tail/rump. Immunizations were administered at week 0 and week 4.
Mice were bled the day prior to each immunization, and at 13 days after the final immunization. Serum was analyzed from pools from mice within groups. […] All day 0 pre-immunization titers were less than 50.
Individual week 6 IgG titer geometric means against the recombinant Porin B protein were also determined.
as §1, with “six” for “five”, “five” for “ten”, “ml.” for “ml, divided equally into each of two sites at the base of the tail/rump.”
Mice were bled the day prior to each immunization, and at 13 days after the final immunization. Serum was analyzed from pools from mice within groups. […] All day 0 pre-immunization titers were less than 50. The starting dilution for vaginal lavage analysis was 1/5.

[3] = system: spleen cells; assay: Secretion of interferon-gamma by spleen cells (ELISA); type: cell-based, Balb/c mice; settings: for Secretion of Interferon-gamma, Con A 5 μg/ml / Secretion of Interferon-gamma, HIV Peptide 1.1 μg/ml / Secretion of Interferon-gamma, HIV Peptide 3.3 μg/ml / Secretion of Interferon-gamma, HIV Peptide 10 μg/ml: Experiment 2, 96 hours culture, after subtraction of lysozyme value; for Secretion of Interferon-gamma, HIV Peptide 1.1 μg/ml / Secretion of Interferon-gamma, HIV Peptide 3.3 μg/ml / Secretion of Interferon-gamma, HIV Peptide 10 μg/ml: bd = below limit of detection; for Secretion of Interferon-gamma, Con A 1 μg/ml: Experiment 1
Method: For proliferation assays and in vitro cytokine analysis, spleen cells were obtained from mice at the indicated time points. Single cell suspensions were prepared from pools of 3-5 mice as indicated in Results. For proliferation and cytokine analysis, cells were suspended in round bottom 96 well culture plates precoated overnight with HIV peptide antigens, control proteins, or RPMI-10 only. Spleen cells were added at 5×10^5 cells/well using culture medium having 2× supplements. Cell culture supernatants were harvested from triplicate wells for cytokine analysis three or six days after culture initiation. Immediately after supernatant harvest, cultures were pulsed with ^3H-thymidine for 18-24 hours, and harvested to quantify cell proliferation.
For cytokine analysis, cell culture supernatants were added to wells coated with BVD6-11B11 (for anti-IL4), or R4-6A2 (for interferon-gamma). After incubation and washing, wells were developed using biotin-labeled BVD6-24G2 (for IL4) or XMG 1.2 (for interferon-gamma). The concentration of cytokines was determined using a standard curve prepared from recombinant murine interferon-gamma or interleukin-4. All cytokine reagents were purchased from Pharmingen (San Diego, Calif.).
Interferon-gamma secreted into culture by spleen cells stimulated with 25 μg T1SP10MN(A) (−Cys). Spleen cells were harvested from pools of five Balb/c female mice and cultured with the indicated antigenic stimuli (the same as in Example 6) for either three or six days. Interferon-gamma levels were determined by ELISA, and compared to a standard having a known concentration. Blank wells indicate that the assay could not detect Interferon-gamma from those culture conditions. The lower limit of detection sensitivity was 4 picograms/ml.
Cells were cultured for a total of 96 hours. Cell culture supernatants were analyzed for interferon-gamma by ELISA. All values were after subtraction from those determined from supernatants of cells stimulated with 10 μg of lysozyme. Results which were below the limit of detection, after subtraction from stimulation induced with lysozyme are indicated as “bd”. The adjuvants were the same as those in Example 12.

[4] = system: T1SP10MN(A) (−Cys); settings: for Reciprocal anti-T1SP10MN(A) (−Cys) IgG (GMT) endpoint titer / Reciprocal anti-T1SP10MN(A) (−Cys) IgG1 (pool) endpoint titer / Reciprocal anti-T1SP10MN(A) (−Cys) IgG2a (pool) endpoint titer / Reciprocal anti-T1SP10MN(A) (−Cys) IgG (pool) endpoint titer: Experiment 2, 14 days after second immunization; for Reciprocal anti-T1SP10MN(A) (−Cys) IgG (GMT) endpoint titer: geometric mean of individual Balb/c mice; for Reciprocal anti-T1SP10MN(A) (−Cys) IgG (pool) endpoint titer: immunized days 0 and 21; for IgG serum titer specific for T1SP10MN(A) (−Cys), Mouse #1 / IgG serum titer specific for T1SP10MN(A) (−Cys), Mouse #2 / IgG serum titer specific for T1SP10MN(A) (−Cys), Mouse #3 / IgG serum titer specific for T1SP10MN(A) (−Cys), Mouse #4 / IgG serum titer specific for T1SP10MN(A) (−Cys), Mouse #5: individual Balb/c mouse, day 41, 13 days after secondary immunization (days 0 and 28); for Geometric Mean IgG serum titer specific for T1SP10MN(A) (−Cys), GMT: n=5 Balb/c; for Reciprocal anti-T1SP10MN(A) (−Cys) IgG GMT: geometric mean n=5 Balb/c
Method: Mice were immunized subcutaneously in the rump, in a total volume of 0.2 ml equally divided on each side of the tail. Immunizations were administered at varying time intervals, as indicated below. Antigen and cytokines were diluted in phosphate buffered saline to the appropriate concentrations and formulated with adjuvants less than 16 hours prior to immunization, under sterile conditions. Vaccines were mixed by gentle agitation, and stored at 4° C. Formulations were mixed by vortex immediately prior to immunization.
Reciprocal anti-HIV peptide-specific IgG endpoint titers were measured from pooled serum (n=5 Balb/c) at the indicated time points after initial immunization. Mice were immunized subcutaneously in the rump with 25 μg of T1SP10MN(A) (−Cys), unless otherwise indicated, on day 0, and on day 27. For recipients of Freund's adjuvants, mice were primed with peptide emulsified in CFA, and boosted with IFA. MPL™ SE was provided as an emulsion containing 2% squalene oil and 50 μg MPL™ per dose. SE is an oil-in-water emulsion vehicle consisting of squalene, glycerol, and an emulsifying agent. Recombinant murine IL-12 was delivered at 50 ng/mouse. Recombinant murine GM-CSF was delivered at 10 μg/mouse.
Reciprocal endpoint IgG subclass titers were measured from pooled serum (n=5 Balb/c) six weeks after initial immunization, two weeks after secondary immunization. Mice were immunized subcutaneously in the rump with 25 μg of peptide, unless otherwise indicated. For recipients of Freund's adjuvants, mice were primed with peptide emulsified in complete Freund's adjuvant, and boosted with incomplete Freund's adjuvant on weeks four and six. MPL™ SE was provided as an emulsion containing 2% squalene oil and 50 μg MPL™ per dose. SE is an oil-in-water emulsion vehicle consisting of squalene, glycerol, and an emulsifying agent. Recombinant murine IL-12 was delivered at 50 ng/mouse. Recombinant murine GM-CSF was delivered at 10 μg/mouse.
Mice were immunized subcutaneously in the rump, in a total volume of 0.2 ml equally divided on each side of the tail. Immunizations were administered on days 0 and 21 with 25 μg of the HIV peptide, together with the indicated amount of adjuvant(s).
Reciprocal anti-peptide IgG endpoint titers were measured from either geometric means from individual mice (GMT) or from pooled serum (n=5 Balb/c), obtained 14 days after the second immunization. IgG1 and IgG2a subclass endpoint titers were also measured from pooled serum.

[5] = Experiment 4, Balb/c, day 41, 13 days after secondary immunization
[6] = Experiment 10, pooled serum n=10 Swiss-Webster
[7] = Experiment 11, pooled serum n=5 Swiss-Webster
[8] = Experiment 4, day 41, 13 days after secondary immunization
[9] = Experiment 4, pooled serum n=5 Balb/c, day 41, 13 days after secondary immunization
[10] = Experiment 5, immunized days 0 and 22, bled day 42
[11] = Experiment 5, pooled serum n=5 Balb/c, immunized days 0 and 22, bled day 42
[12] = Experiment 1, pooled lavage, 5 Balb/c, immunized days 0, 28, 42, 2 weeks after final immunization
[13] = Experiment 1, pooled serum n=5 Balb/c, 25 μg peptide s.c. day 0 and 27
[14] = Experiment 1, pooled serum n=5 Balb/c, six weeks after initial, two weeks after secondary immunization, 25 μg peptide

Molecule	Vaginal lavage reciprocal anti-T1SP10MN(A) (−Cys) IgA endpoint titer [1]	Vaginal lavage reciprocal anti-T1SP10MN(A) (−Cys) IgG endpoint titer [1]	Vaginal lavage IgA anti-T1SP10MN(A) (−Cys) antibody titer [1, 5]	Vaginal lavage IgG anti-T1SP10MN(A) (−Cys) antibody titer [1, 5]	Secretion of Interferon-gamma, Con A 5 μg/ml [3]	Secretion of Interferon-gamma, HIV Peptide 1.1 μg/ml [3]	Secretion of Interferon-gamma, HIV Peptide 3.3 μg/ml [3]	Secretion of Interferon-gamma, HIV Peptide 10 μg/ml [3]	Reciprocal anti-T1SP10MN(A) (−Cys) IgG (GMT) endpoint titer [4]	Reciprocal anti-T1SP10MN(A) (−Cys) IgG1 (pool) endpoint titer ([4]; pooled serum n=5 Balb/c)	Reciprocal anti-T1SP10MN(A) (−Cys) IgG2a (pool) endpoint titer ([4]; pooled serum n=5 Balb/c)	Reciprocal anti-T1SP10MN(A) (−Cys) IgG (pool) endpoint titer ([4]; pooled serum n=5 Balb/c)	IgG serum titer specific for T1SP10MN(A) (−Cys), Mouse #1 ([4]; Experiment 4)	IgG serum titer specific for T1SP10MN(A) (−Cys), Mouse #2 ([4]; Experiment 4)	IgG serum titer specific for T1SP10MN(A) (−Cys), Mouse #3 ([4]; Experiment 4)	IgG serum titer specific for T1SP10MN(A) (−Cys), Mouse #4 ([4]; Experiment 4)	IgG serum titer specific for T1SP10MN(A) (−Cys), Mouse #5 ([4]; Experiment 4)	Geometric Mean IgG serum titer specific for T1SP10MN(A) (−Cys), GMT [4, 8]	Reciprocal anti-T1SP10MN(A) (−Cys) IgG1 endpoint titer [4, 9]	Reciprocal anti-T1SP10MN(A) (−Cys) IgG2a endpoint titer [4, 9]	further results
3-O-deacylated monophosphoryl lipid A [MPL ™]	<10	<10	<10	12	203 units/ml	bd	bd	5 units/ml	241,918	134,428	7,127	219,705	50	151,846	249,054	436,378	1,245,470	63,452	33,544	212	Reciprocal anti-Porin B Protein IgG1 endpoint titer, Week 3 [2, 6]: 171; Reciprocal anti-Porin B Protein IgG1 endpoint titer, Week 6 [2, 6]: 23,465; Reciprocal anti-Porin B Protein IgG2a endpoint titer, Week 3 [2, 6]: 318; Reciprocal anti-Porin B Protein IgG2a endpoint titer, Week 6 [2, 6]: 20,422; Reciprocal anti-Porin B Protein IgG endpoint titer, Week 3 [2, 6]: 3,381; Reciprocal anti-Porin B Protein IgG endpoint titer, Week 6 [2, 6]: 431,529; Individual IgG titers against recombinant Porin B protein, Geometric Mean ([2]; Experiment 10, week 6, Swiss-Webster): 217,114; Reciprocal anti-Porin B Protein IgG1 endpoint titer, Week 3 [2, 7]: 500; Reciprocal anti-Porin B Protein IgG1 endpoint titer, Week 6 [2, 7]: 76,640; Reciprocal anti-Porin B Protein IgG2a endpoint titer, Week 3 [2, 7]: 1,925; Reciprocal anti-Porin B Protein IgG2a endpoint titer, Week 6 [2, 7]: 60,910; Reciprocal anti-Porin B Protein IgG endpoint titer, Week 3 [2, 7]: 5,656; Reciprocal anti-Porin B Protein IgG endpoint titer, Week 6 [2, 7]: 265,127; Reciprocal anti-T1SP10MN(A) (−Cys) IgG2b endpoint titer [4, 9]: <100; Reciprocal anti-T1SP10MN(A) (−Cys) IgG GMT [4, 10]: 2,032,441; Reciprocal anti-T1SP10MN(A) (−Cys) IgG1 endpoint titer [4, 11]: 1,314,771; Reciprocal anti-T1SP10MN(A) (−Cys) IgG2a endpoint titer [4, 11]: 9,688; Reciprocal anti-T1SP10MN(A) (−Cys) IgG2b endpoint titer [4, 11]: 13,716; Reciprocal anti-T1SP10MN(A) (−Cys) IgG endpoint titer [4, 11]: 2,635,118
B1	<10	26	<10	<10	167 units/ml	4 units/ml	3 units/ml	2 units/ml	1,756	14,538	4,864	27,333	50	50	50	50	50	50	5,514	<100	Vaginal lavage IgA anti-T1SP10MN(A) (−Cys) antibody titer [1, 12]: <20; Vaginal lavage IgG anti-T1SP10MN(A) (−Cys) antibody titer [1, 12]: <20; Secretion of Interferon-gamma, Con A 1 μg/ml ([3]; Six Day Cultures): 7.3 picograms/ml; Secretion of Interferon-gamma, Con A 1 μg/ml ([3]; Three Day Cultures, detection limit 4 picograms/ml): 17.6 picograms/ml; Reciprocal anti-T1SP10MN(A) (-Cys) IgG endpoint titer, WEEK 4 [4, 13]: <100; Reciprocal anti-T1SP10MN(A) (-Cys) IgG endpoint titer, WEEK 6 [4, 13]: 17,579; Reciprocal anti-T1SP10MN(A) (-Cys) IgG endpoint titer, WEEK 8 [4, 13]: 12,537; Reciprocal anti-T1SP10MN(A) (-Cys) IgG1 endpoint titer [4, 14]: 1,783; Reciprocal anti-T1SP10MN(A) (-Cys) IgG2a endpoint titer [4, 14]: <100; Reciprocal anti-T1SP10MN(A) (-Cys) IgG2b endpoint titer [4, 14]: <100; Reciprocal anti-T1SP10MN(A) (−Cys) IgG2b endpoint titer [4, 9]: <100; Reciprocal anti-T1SP10MN(A) (−Cys) IgG GMT [4, 10]: 5,133; Reciprocal anti-T1SP10MN(A) (−Cys) IgG1 endpoint titer [4, 11]: 3,815; Reciprocal anti-T1SP10MN(A) (−Cys) IgG2a endpoint titer [4, 11]: <1000; Reciprocal anti-T1SP10MN(A) (−Cys) IgG2b endpoint titer [4, 11]: <1000; Reciprocal anti-T1SP10MN(A) (−Cys) IgG endpoint titer [4, 11]: 11,639
